The test system of one test is estrogen levels. Conditions: while raising testosterone levels; cited from earlier work.
Another test has as its system Mouse thoracic aortas. Nature of the test: Acetylcholine relaxation of mouse thoracic aortic rings after exposure to MIG (wire myograph). The following applies: mouse thoracic aortic sections, precontracted with U46619, increasing concentrations of recombinant mouse MIG. The method, then:
Mouse thoracic aortas were carefully dissected, and vessels were cut into small rings and mounted on an isometric wire myograph chambers (Danish Myo Technology) and subjected to a normalization protocol. Following normalization, the vessels were incubated with either PBS or different concentrations of recombinant mouse MIG (R&D systems, catalog number 492-MM). A concentration-dependent contraction curve was created by accumulative application of the prostaglandin agonist U46619. Subsequently, concentration-dependent relaxation curves of Acetylcholine were conducted on these vessels and percent relaxation calculated for each dose.

Consider `N#Cc1ccc(C(c2ccc(C#N)cc2)n2cncn2)cc1` [Letrozole], for which the “reduction of estrogen levels” value in the test with estrogen levels is 98%.

B1: MIG: recombinant mouse MIG (R&D systems, catalog number 492-MM), monokine induced by gamma interferon (protein, UniProt P18340 22-126, looked up)
C-X-C motif chemokine 9: TLVIRNARCSCISTSRGTIHYKSLKDLKQFAPSPNCNKTEIIATLKNGDQTCLDPDSANVKKLMKEWEKKISQKKKQKRGKKHQKNMKNRKPKTPQSRRRSRKTT
For the molecule B1, the “effect on vasorelaxation to Acetylcholine” value in the test on Mouse thoracic aortas is on record as “dose-dependent effect on vasorelaxation”.

Values taken from patent publication US20210315921A1, “Compounds and Methods for Modifying iAge” (Edifice Health, Inc,, priority 2020, published 2021).
